In US9181234B2, “Antibacterial compounds” (priority 2010, dated 2015):
≈ marks a conversion by molar mass, not a printed value.

Experiments:
[1] = tested on: Haemophilus influenzae (Isolate ID ATCC 49247); experiment: Antibacterial activity, MIC, H. influenzae; assay type: cell-based; conditions: Haemophilus influenzae, ATCC49247; Gram negative strain; broth microdilution or agar dilution
Method in brief: (§1)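 Compounds are serially diluted in broth or agar as CLSI specifies for aerobically growing bacteria, and the MIC is then recorded for each strain.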

[2] = tested on: Streptococcus pyogenes (Isolate ID ATCC 51339); experiment: Antibacterial activity, MIC, S. pyogenes; assay type: cell-based; conditions: Streptococcus pyogenes, ATCC51339, Gram positive strain; broth microdilution or agar dilution
Method in brief: as §1

[3] = tested on: Enterococcus faecalis (Isolate ID ATCC 29212); experiment: Antibacterial activity, MIC, E. faecalis; assay type: cell-based; conditions: Enterococcus faecalis, ATCC29212; Gram positive strain; broth microdilution or agar dilution
Protocol: Bacterial Assay: Determination of Antibacterial Activity
Compounds of the invention were tested for antimicrobial activity by susceptibility testing in liquid or on solid media. MICs for compounds against each strain were determined by the broth microdilution or agar dilution method according to the guidelines of the Clinical Laboratories and Standards Institute, formerly the National Committee for Clinical Laboratory Standards (Clinical Laboratories and Standards Institute. Methods for Dilution Antimicrobial Susceptibility Tests for Bacteria That Grow Aerobically; Approved Standard—Seventh Edition. Document M7-A7. CLSI, Wayne, Pa., 2006; Clinical Laboratories and Standards Institute. The gram positive bacterial strains tested include S. aureus (Staphylococcus aureus (Isolate ID ATCC 29213)), E. faecalis (Enterococcus faecalis (Isolate ID ATCC 29212)) and S. pyogenes (Streptococcus pyogenes (Isolate ID ATCC 51339)). The gram negative bacterial strains tested include H. influenzae (Haemophilus influenzae (Isolate ID ATCC 49247))

[4] = tested on: Staphylococcus aureus (Isolate ID ATCC 29213); experiment: Antibacterial activity, MIC, S. aureus; assay type: cell-based; conditions: Staphylococcus aureus, ATCC29213, Gram positive strain; broth microdilution or agar dilution
Method in brief: as §1

physchem = conditions: kinetic from dmso stock
Method in brief: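 DMSO doubling dilutions were diluted twenty-fold into 100 mM citrate (pH 4), PBS (pH 7.4) or carbonate-bicarbonate (pH 9). After 24 h equilibration at room temperature, absorbance was read at 620 nm. The reported value is the highest concentration without measurable precipitate.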

[5] = pH 7.4, aqueous buffer, Max Solubility
[6] = pH 7.4, aqueous buffer, Solubility (pH 7.4)
[7] = pH 7.4, aqueous buffer, Solubility Range
[8] = pH 7.4, aqueous buffer, Solubility Range (maximum solubility)
[9] = pH 9, aqueous buffer, Max Solubility
[10] = pH 9, aqueous buffer, Solubility Range (maximum solubility)

| Compound | MIC [1] | MIC [2] | MIC [3] | MIC [4] | solubility at 24 h (physchem; [5]) | solubility at 24 h (physchem; [6]) | solubility at 24 h (physchem; [7]) | solubility at 24 h (physchem; [8]) | solubility at 24 h (physchem; [9]) | solubility at 24 h (physchem; [10]) |
| --- | --- | --- | --- | --- | --- | --- | --- | --- | --- | --- |
| CCNC(=O)Nc1nc2cc(-c3cnc(N4CCC(C)(C(=O)O)CC4)nc3)cc(-c3cccc(C#N)n3)c2s1 [Compound 32] | 1 to 16 µg/mL (≈ 1.84 to 29.5 µM) | ≤ 0.25 µg/mL | ≤ 0.25 µg/mL | ≤ 0.25 µg/mL | 400 µg/mL (≈ 737 µM) | 400 µg/mL (≈ 737 µM) | 400 to 800 µg/mL (≈ 737 to 1470 µM) | 400 to 800 µg/mL (≈ 737 to 1470 µM) | – | – |
| CCNC(=O)Nc1nc2cc(-c3cnc(N4CCC(C)(C(=O)O)CC4)nc3)cc(-n3ccnc3)c2s1 [Compound 33] | > 16 µg/mL | 1 to 16 µg/mL (≈ 1.97 to 31.6 µM) | 1 to 16 µg/mL (≈ 1.97 to 31.6 µM) | > 16 µg/mL | – | 200 µg/mL (≈ 395 µM) | 12.5 to 400 µg/mL (≈ 24.7 to 790 µM) | – | ≥ 800 µg/mL | > 800 µg/mL |
| CCNC(=O)Nc1nc2cc(-c3cnc(N4CCC(C)(C(=O)O)CC4)nc3)cc(-c3ncc(F)cn3)c2s1 [Compound 34] | 1 to 16 µg/mL (≈ 1.86 to 29.8 µM) | ≤ 0.25 µg/mL | ≤ 0.25 µg/mL | ≤ 0.25 µg/mL | – | 50 µg/mL (≈ 93.2 µM) | 12.5 to 400 µg/mL (≈ 23.3 to 745 µM) | – | 100 µg/mL (≈ 186 µM) | 12.5 to 400 µg/mL (≈ 23.3 to 745 µM) |
| CCNC(=O)Nc1nc2cc(-c3cnc(N4CCC(C)(C(=O)O)CC4)c(F)c3)cc(-c3ccccn3)c2s1 [Compound 36] | 1 to 16 µg/mL (≈ 1.87 to 29.9 µM) | ≤ 0.25 µg/mL | ≤ 0.25 µg/mL | ≤ 0.25 µg/mL | – | 50 µg/mL (≈ 93.5 µM) | 12.5 to 400 µg/mL (≈ 23.4 to 748 µM) | – | 400 µg/mL (≈ 748 µM) | 400 to 800 µg/mL (≈ 748 to 1500 µM) |
| CCNC(=O)Nc1nc2cc(-c3cnc(N4CCC(C)(C(=O)O)CC4)nc3)cc(C)c2s1 [Compound 38, 1-{5-[2-(3-Ethyl-ureido)-7-methyl-benzothiazol-5-yl]-pyrimidin-2-yl}-4-methyl-piperidine-4-carboxylic acid] | > 16 µg/mL | 0.25 to 1 µg/mL (≈ 0.55 to 2.2 µM) | ≤ 0.25 µg/mL | 0.25 to 1 µg/mL (≈ 0.55 to 2.2 µM) | ≥ 800 µg/mL | ≥ 800 µg/mL | > 800 µg/mL | > 800 µg/mL | – | – |
| CCNC(=O)Nc1nc2cc(-c3cnc(N4CCC(C)(C(=O)O)CC4)cn3)cc(-c3ccccn3)c2s1 [Compound 40] | 1 to 16 µg/mL (≈ 1.93 to 30.9 µM) | ≤ 0.25 µg/mL | ≤ 0.25 µg/mL | 0.25 to 1 µg/mL (≈ 0.483 to 1.93 µM) | ≥ 800 µg/mL | ≥ 800 µg/mL | > 800 µg/mL | > 800 µg/mL | – | – |
| CCNC(=O)Nc1nc2cc(-c3cnc(N4CCC(C)(C(=O)O)CC4)nc3)cc(-c3cn(-c4ccccc4)nn3)c2s1 [Compound 41, 1-[5-[2-(ethylcarbamoylamino)-7-(1-phenyltriazol-4-yl)-1,3-benzothiazol-5-yl]pyrimidin-2-yl]-4-methyl-piperidine-4-carboxylic acid] | 1 to 16 µg/mL (≈ 1.71 to 27.4 µM) | ≤ 0.25 µg/mL | ≤ 0.25 µg/mL | ≤ 0.25 µg/mL | ≥ 800 µg/mL | ≥ 800 µg/mL | > 800 µg/mL | > 800 µg/mL | – | – |
| CCNC(=O)Nc1nc2cc(-c3cnc(N4CCC(C)(C(=O)O)CC4)nc3)cc(-c3ccnc(OC)n3)c2s1 [Compound 42] | 1 to 16 µg/mL (≈ 1.82 to 29.2 µM) | ≤ 0.25 µg/mL | ≤ 0.25 µg/mL | 0.25 to 1 µg/mL (≈ 0.456 to 1.82 µM) | – | 25 µg/mL (≈ 45.6 µM) | 12.5 to 400 µg/mL (≈ 22.8 to 729 µM) | – | 100 µg/mL (≈ 182 µM) | 12.5 to 400 µg/mL (≈ 22.8 to 729 µM) |
| CCNC(=O)Nc1nc2cc(-c3cnc(N4CCC(C)(C(=O)O)CC4)nc3)cc(-c3ccnc(C)n3)c2s1 [Compound 43] | 0.25 to 1 µg/mL (≈ 0.469 to 1.88 µM) | ≤ 0.25 µg/mL | ≤ 0.25 µg/mL | ≤ 0.25 µg/mL | – | 400 µg/mL (≈ 751 µM) | 400 to 800 µg/mL (≈ 751 to 1500 µM) | – | ≥ 800 µg/mL | > 800 µg/mL |
| CCNC(=O)Nc1nc2cc(-c3cnc(N4CCC(C)(C(=O)O)CC4)nc3)cc(-c3ccnc(C#N)n3)c2s1 [Compound 44] | > 16 µg/mL | ≤ 0.25 µg/mL | ≤ 0.25 µg/mL | 1 to 16 µg/mL (≈ 1.84 to 29.4 µM) | ≥ 800 µg/mL | ≥ 800 µg/mL | > 800 µg/mL | > 800 µg/mL | – | – |
| CCNC(=O)Nc1nc2cc(-c3cnc(N4CCC(C)(C(=O)O)CC4)nc3)cc(-c3cc(C)ncn3)c2s1 [Compound 45] | 0.25 to 1 µg/mL (≈ 0.469 to 1.88 µM) | ≤ 0.25 µg/mL | ≤ 0.25 µg/mL | ≤ 0.25 µg/mL | ≥ 800 µg/mL | ≥ 800 µg/mL | > 800 µg/mL | > 800 µg/mL | – | – |
| CCNC(=O)Nc1nc2cc(-c3cnc(N4CCC(C)(C(=O)O)CC4)nc3)ccc2s1 [Compound 46, 1-{5-[2-(3-Ethyl-ureido)-benzothiazol-5-yl]-pyrimidin-2-yl}-4-methyl-piperidine-4-carboxylic acid] | > 16 µg/mL | 1 to 16 µg/mL (≈ 2.27 to 36.3 µM) | 0.25 to 1 µg/mL (≈ 0.567 to 2.27 µM) | 1 to 16 µg/mL (≈ 2.27 to 36.3 µM) | – | 100 µg/mL (≈ 227 µM) | 12.5 to 400 µg/mL (≈ 28.4 to 908 µM) | – | 400 µg/mL (≈ 908 µM) | 400 to 800 µg/mL (≈ 908 to 1820 µM) |
| CCNC(=O)Nc1nc2cc(-c3cnc(N4CCC(C)(C(=O)O)CC4)nc3)cc(C3CCOCC3)c2s1 [Compound 47, 1-[5-[2-(ethylcarbamoylamino)-7-tetrahydropyran-4-yl-1,3-benzothiazol-5-yl]pyrimidin-2-yl]-4-methyl-piperidine-4-carboxylic acid] | > 16 µg/mL | 1 to 16 µg/mL (≈ 1.91 to 30.5 µM) | 0.25 to 1 µg/mL (≈ 0.477 to 1.91 µM) | 1 to 16 µg/mL (≈ 1.91 to 30.5 µM) | ≥ 800 µg/mL | ≥ 800 µg/mL | > 800 µg/mL | > 800 µg/mL | – | – |
| CCNC(=O)Nc1nc2cc(-c3cnc(N4CCC(C)(C(=O)O)CC4)nc3)cc(-c3cc(OC(C)C)ncn3)c2s1 [Compound 48] | 1 to 16 µg/mL (≈ 1.73 to 27.7 µM) | ≤ 0.25 µg/mL | ≤ 0.25 µg/mL | ≤ 0.25 µg/mL | – | 400 µg/mL (≈ 694 µM) | 400 to 800 µg/mL (≈ 694 to 1390 µM) | – | ≥ 800 µg/mL | > 800 µg/mL |
| CCNC(=O)Nc1nc2cc(-c3cnc(N4CCC(C)(C(=O)O)CC4)nc3)cc(-c3cc(OCCOC)nc(C)n3)c2s1 [Compound 49] | 1 to 16 µg/mL (≈ 1.65 to 26.4 µM) | ≤ 0.25 µg/mL | ≤ 0.25 µg/mL | ≤ 0.25 µg/mL | ≥ 800 µg/mL | ≥ 800 µg/mL | > 800 µg/mL | > 800 µg/mL | – | – |
| CCNC(=O)Nc1nc2cc(-c3cnc(N4CCC(C)(C(=O)O)CC4)nc3)cc(-c3cn(C)nn3)c2s1 [Compound 50, 1-[5-[2-(ethylcarbamoylamino)-7-(1-methyltriazol-4-yl)-1,3-benzothiazol-5-yl]pyrimidin-2-yl]-4-methyl-piperidine-4-carboxylic acid] | 1 to 16 µg/mL (≈ 1.92 to 30.7 µM) | 0.25 to 1 µg/mL (≈ 0.479 to 1.92 µM) | 0.25 to 1 µg/mL (≈ 0.479 to 1.92 µM) | > 16 µg/mL | ≥ 800 µg/mL | ≥ 800 µg/mL | > 800 µg/mL | > 800 µg/mL | – | – |
| CCNC(=O)Nc1nc2cc(-c3cnc(N4CCC(C)(C(=O)O)CC4)nc3)cc(-c3ncc(OC)cn3)c2s1 [Compound 51] | 0.25 to 1 µg/mL (≈ 0.456 to 1.82 µM) | ≤ 0.25 µg/mL | ≤ 0.25 µg/mL | ≤ 0.25 µg/mL | ≥ 800 µg/mL | ≥ 800 µg/mL | > 800 µg/mL | > 800 µg/mL | – | – |
| CCNC(=O)Nc1nc2cc(-c3cnc(N4CCC(C)(C(=O)O)CC4)nc3)cc(-c3cccc(OC)n3)c2s1 [Compound 52] | 1 to 16 µg/mL (≈ 1.83 to 29.2 µM) | ≤ 0.25 µg/mL | ≤ 0.25 µg/mL | ≤ 0.25 µg/mL | ≥ 800 µg/mL | ≥ 800 µg/mL | > 800 µg/mL | > 800 µg/mL | – | – |
| CCNC(=O)Nc1nc2cc(-c3cnc(N4CCC(C)(C(=O)O)CC4)nc3)cc(-c3ccc(F)c(C)n3)c2s1 [Compound 53] | 1 to 16 µg/mL (≈ 1.82 to 29.1 µM) | ≤ 0.25 µg/mL | ≤ 0.25 µg/mL | ≤ 0.25 µg/mL | – | 25 µg/mL (≈ 45.5 µM) | 12.5 to 400 µg/mL (≈ 22.7 to 728 µM) | – | ≥ 800 µg/mL | > 800 µg/mL |
